In ChEMBL document CHEMBL1130104 (J Med Chem, 1997):

How the values were obtained:
HeLa [1] = assay: Compound was tested for Anti-HIV activity by plaque reduction assay with A018-post virus in HT4-6C human CD4+ […]; assay type: functional, cell-based
HeLa [2] = assay: Compound was tested for Anti-HIV activity by plaque reduction assay with E89K virus in HT4-6C human CD4+ […]; assay type: functional, cell-based
HeLa [3] = assay: compound was tested for 50% toxic concentration by visual grading scale of cells after 3 days of drug treatment in HT4-6C cells.; assay type: functional; conditions: Homo sapiens, 72 h, read-out: TC50 (the source's name)
[4] = selectivity index expressed as TC50/EC50; EC50 values are calculated from […] cells infected with HIV-1LAI; assay type: functional
[5] = selectivity index = TC50/EC50. The EC50 values are calculated from CEM lymphoblast cells infected with HIV-1LAI virus.; assay type: functional, CCRF-CEM
HeLa [6] = assay: Compound was tested for Anti-HIV activity by plaque reduction assay with wild type HIV-1LAI virus in HT4-6C human CD4+ […]; assay type: functional, cell-based
[7] = compound was tested for 50% toxic concentration by flow cytometry after propidium iodide staining after 3 days of drug treatment in CEM lymphoblast cells.; conditions: human, read-out: TC50
[8] = selectivity index expressed as TC50/EC50; EC50 values are calculated from HT4-6C cells infected with HIV-1LAI virus.

Structure (SMILES) | EC50 (HeLa [1]) | EC50 (HeLa [2]) | CC50 (HeLa [3]) | Selectivity index [4] | Selectivity index [5] | EC50 (HeLa [6]) | CC50 at 72 h [7] | Selectivity index [8]
CCCCCCCCCCCCCCCCCCCCOC(=O)P(=O)(O)OC[C@H]1O[C@@H](n2cc(C)c(=O)[nH]c2=O)C[C@@H]1N=[N+]=[N-].N | 0.53 µM | 0.009 µM | 32 µM | 228 | 257 | 0.14 µM | 36 µM | –
CCCCCCCCCCCCCCCCCCCCCCOC(=O)P(=O)(O)OC[C@H]1O[C@@H](n2cc(C)c(=O)[nH]c2=O)C[C@@H]1N=[N+]=[N-].N | 0.77 µM | 0.17 µM | 320 µM | 1000 | 291 | 0.32 µM | 93 µM | –
CCCCCCCCCCCCCCCCCCOC(=O)P(=O)(O)OC[C@H]1O[C@@H](n2cc(C)c(=O)[nH]c2=O)C[C@@H]1N=[N+]=[N-].N | 0.3 µM | 0.13 µM | 10 µM | 100 | – | 0.1 µM | 28 µM | 280
O=C(O)P(=O)(O)O [FOSCARNET] | 65 µM | > 1000 µM | 1000 µM | >7.5 | – | 133 µM | 800 µM | 6
Cc1cn([C@H]2C[C@H](N=[N+]=[N-])[C@@H](CO)O2)c(=O)[nH]c1=O [ZIDOVUDINE] | 2.9 µM | 0.009 µM | – | – | – | 0.013 µM | – | –
